Assay: gradient 5% acetonitrile 3 min, to 50% in 2 min, to 85% in 15 min, held 3 min, 100 µL/min
Settings: column: Zorbax Extend-C18 2.1 x 50 mm; eluents: water / acetonitrile, 0.1% formic acid
Outline: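 Mixtures of ~100 pure standards were chromatographed on a Zorbax Extend-C18 column (2.1 × 50 mm, 1.8 μm) at 100 μL/min using water and acetonitrile, each with 0.1% formic acid. Detection used a quadrupole time-of-flight mass spectrometer in positive and negative ionization mode, and data collection spanned 3 months. Retention time was obtained from adduct peaks picked computationally and each checked manually.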

| SMILES | RP-LC retention time [s] |
| --- | --- |
| O=C(NCc1cccs1)C1CCN(c2nnc3ccccn23)CC1 | 528 |
| O=C(NC1CCN(c2cc(-c3ccc(Cl)cc3)[nH]n2)C1)c1ccc(F)c(F)c1 (centres undefined) | 839 |
| CC1=C(c2ccccc2)S(=O)(=O)N=C1N1CCCN(C(=O)C2CCCC2)CC1 | 814 |
| COc1cccc(CNC(=O)c2c(C)sc3ccn(CC(C)C)c(=O)c23)c1 | 960 |
| CN1CCN(CCNC(=O)C2CCc3sc(C(=O)N4CCOCC4)cc3C2)CC1 (centres undefined) | 543 |
| CCn1c(=O)c(NCc2cccc(Cl)c2)nc2ccncc21 | 649 |
| O=C1CCC2(C(=O)NCC3CC3)CCCC=C2N1c1ccccc1 (centres undefined) | 726 |
| CC1CCN(C(=O)Cn2nc3nc(Nc4ccc(F)cc4)ccn3c2=O)CC1 | 754 |
| CNC(=O)c1c(NC(=O)c2ccc(C)cc2)sc2c1CCC2 | 1070 |
| COCCCN(C(=O)c1ccccc1)C(C)C(=O)c1c(C)[nH]c(C(=O)OC)c1C (centres undefined) | 736 |
| O=C(c1cccs1)N1CCC(c2nncn2Cc2ccccc2)CC1 | 673 |
| Cc1c(Cl)cccc1Nc1c(-c2ccc(Cl)cc2)nc2cnccn12 | 1120 |
| CCN1c2cc(C(=O)NC3CCCCC3)ccc2C(=O)N2CCCCC21 (centres undefined) | 853 |
| CCOc1ccc(CCNC(=O)CN2C(=O)CSc3cccn3-c3ccccc32)cc1OCC | 939 |
| COc1ccc(OCc2nc(C3CN(C(=O)C4(c5ccccc5)CC4)C3)no2)cc1 | 904 |
| Cc1ccc(S(=O)(=O)N2CCCC(CCC(=O)NCc3ccccn3)C2)cc1 (centres undefined) | 656 |
| CCS(=O)(=O)N1CC(=O)N(Cc2cccc(C)c2)C(C)(C(=O)NCc2ccc(F)cc2)C1 (centres undefined) | 882 |
| CCCN(CC1CC1)C(=O)CCC[C@@H]1[C@H]2CCCN3CCC[C@@H](CN1C(C)=O)[C@@H]23 | 618 |
| Cc1ccccc1NC(=O)N1CCC(CCNC(=O)C2(c3ccccc3)CC2)CC1 | 873 |
| O=C(c1ccco1)N1CC(Oc2ccc(-c3nc(-c4ccccc4)no3)cc2)C1 | 856 |
| CCn1cc(C(=O)Nc2ccc(C)cc2)c2cccnc21 | 859 |
| O=C(NCCc1noc(C2CC2)n1)C1CCC1 | 651 |
| COc1ccc(CCc2nc3nccc(-c4cccnc4)n3n2)cc1 | 720 |

| SMILES | RP-LC retention time [s] |
| --- | --- |
| O=C(C(=O)N1CCN(c2cccc(Cl)c2)CC1)c1c[nH]c2ccccc12 | 710 |
| O=C(CCC1CCCC1)NC1(c2nc(-c3cccnc3)no2)CCCCC1 | 1020 |
| CCOc1ccc(-c2nc(Cc3noc(-c4ccncc4)n3)c(C)o2)cc1 | 1010 |
| CCOCCCNC(=O)Cn1c(=O)c2cccn2c2ccc(F)cc21 | 712 |
| Cc1ccc(C)c(NC(=O)c2cn(-c3ncccc3-c3nc(C4CC4)no3)cn2)c1 | 973 |
| O=C(Nc1ccc(F)cc1)Nc1nccn(-c2ccc(Br)cc2)c1=O | 985 |
| COc1ccc(-c2c(C)noc2NC(C)=O)cc1S(=O)(=O)Nc1ccc(F)cc1 | 736 |
| CCOc1ccc(NC(=O)Cn2cnc3nc(N4CCCC(C(=O)NC(C)C)C4)sc3c2=O)cc1 (centres undefined) | 698 |
| O=C(Cn1cccc1-c1nc(-c2ccc3c(c2)OCO3)no1)Nc1ccc(Cl)cc1F | 738 |
| CNC(=O)C1CCCN(c2nc3ncn(CC(=O)Nc4cccc(C(F)(F)F)c4)c(=O)c3s2)C1 (centres undefined) | 704 |
| Cc1ccc(C(=O)N[C@@H]2CN(S(C)(=O)=O)C[C@H]2CN(C)C)s1 | 582 |
| CCOC(=O)c1noc2nc(C)nc(NCc3ccc(F)cc3)c12 | 1030 |
| O=c1c2cc(-c3cccs3)nn2ccn1Cc1noc(CN2CCCCCCC2)n1 | 688 |
| COc1cc(-c2nc3ccccn3c2Nc2ccc3c(c2)OCCO3)ccc1O | 629 |
| O=C(Cc1csc2nc(-c3cccc(Cl)c3)cn12)Nc1ccc(F)cc1F | 942 |
| CCN1C(=O)COc2ccc(-c3noc(COc4ccc(OC)cc4)n3)cc21 | 1000 |
| O=S(=O)(Nc1cccc(-c2nc(-c3cccc(Br)c3)co2)c1)c1cccs1 | 1230 |
| CC(NC(=O)C(C)(C)C)C(=O)N1CCN(c2ccccn2)CC1 (centres undefined) | 574 |
| COc1ccccc1CNC(=O)c1cn2ccccc2n1 | 665 |
| COC(=O)C1=CN(c2ccc(OC)c(OC)c2)c2ccc(F)cc2S1(=O)=O | 788 |
| CN(CC(=O)N1CCN(c2cccc(Cl)c2)CC1)S(=O)(=O)c1c[nH]c(C(=O)N2CCCC2)c1 | 834 |
| Cc1c(-c2ccnc(N3CCOCC3)n2)cnc2nc(-c3ccccc3)nn12 | 885 |
| COc1ccccc1-c1nc2nccc(-c3ccc4c(c3)OCCCO4)n2n1 | 888 |

| SMILES | RP-LC retention time [s] |
| --- | --- |
| O=C1c2ccccc2C(=O)c2sc(Nc3ccc(Cl)c(Cl)c3)nc21 | 1140 |
| CCOCCCNC(=O)C1CCCN(C(=O)c2cc(C)cc(C)c2)C1 (centres undefined) | 743 |
| CC(=O)Nc1ccc2c(c1)nc(CN1CCOCC1)n2C(C)C | 579 |
| COCCNC(=O)c1ccc(OC2CCN(CC(c3ccccc3)c3ccccc3)CC2)c(OC)c1 | 680 |
| COCCC(=O)N1CCCn2nc(-c3cccc(OC)c3)cc2C1 | 644 |
| CCOc1ccccc1NC(=O)Cn1ccnc1-c1ccnc(N2CCOCC2)c1 | 638 |
| CCN(CC)C(=O)N1CC(c2nc(-c3ccncc3)nn2C)C1 | 566 |
| CCc1ccc(C2=C(C)C(N3CCCN(C(=O)NC(C)C)CC3)=NS2(=O)=O)cc1 | 849 |
| Cc1cc(C)n(Cc2nc(-c3ccc(NC(=O)c4ccco4)cc3)oc2C)n1 | 818 |
| COc1cccc(-c2ccnc3nc(Cc4cc(F)cc(F)c4)nn23)c1 | 945 |
| O=C(NCCc1ccco1)C1CCN(Cc2cc3ccccc3n2Cc2ccccc2Cl)CC1 | 841 |
| CCn1c(=O)n(CC)c2cc(NC3=C(C(=O)Nc4ccccc4)S(=O)(=O)c4ccccc43)ccc21 | 947 |
| Cc1ccc2c(c1)N(C(=O)Cn1c(=O)c(CCC(=O)NCC(C)C)nc3ccccc31)CCO2 | 884 |
| COC(=O)c1ccc(NC(=O)c2cnc(-c3ccc(C)cc3)nc2-c2ccncc2)cc1 | 961 |
| CC1CCC(NC(=O)C2CCCN(C(=O)c3cc(-c4cccnc4)n[nH]3)C2)CC1 (centres undefined) | 636 |
| O=S(=O)(Cc1ccccc1F)N1CCCC(Cn2c(C3CC3)nc3cccnc32)C1 (centres undefined) | 732 |
| CC12CC(Br)(Br)C(=O)C3C1CCCC32 | 1100 |
| CCCc1c(C)nc2ncnn2c1N1CCN(c2ccccn2)CC1 | 583 |
| Cc1cccc(-n2ccnc2SCC(=O)Nc2nccs2)c1C | 670 |
| O=C1NCCc2c(OCC(=O)N3N=C(c4cccs4)CC3c3ccc(F)cc3)cccc21 (centres undefined) | 787 |
| Cn1cc(C(=O)NCc2ccc(Cl)cc2)c(S(=O)(=O)N2CCSCC2)n1 | 909 |
| O=C(NCCc1ccccc1)c1nc(Cn2c(=O)oc3ccc(Cl)cc32)no1 | 966 |
| CC(C)NC(=O)c1ccc(CN2CCN(Cc3ccc(F)cc3)C(=O)C2=O)cc1 | 668 |

| SMILES | RP-LC retention time [s] |
| --- | --- |
| Cc1nc(-c2csc(S(=O)(=O)N3CCC(C(=O)NCCc4cccs4)CC3)c2)no1 | 860 |
| Fc1ccc(-c2nnc(Cc3nc(-c4cccc(Br)c4)no3)o2)cc1 | 1090 |
| CCCCn1c(=O)c2ccccc2n(Cc2nc(-c3cccc(Br)c3)no2)c1=O | 1280 |
| CCC(C)NC(=O)c1cc(COc2ccc(NC(=O)C(C)C)cc2)on1 (centres undefined) | 776 |
| Cc1nc(Nc2ccc(F)cn2)sc1C(=O)NCc1ccc(F)cc1 | 832 |
| CSc1ccccc1C(=O)NCC1CCN(S(C)(=O)=O)CC1 | 641 |
| CS(=O)(=O)N1CCC(OC2CCN(C(=O)Nc3ccccc3F)CC2)CC1 | 703 |
| Cc1noc(C)c1-c1ccc(S(=O)(=O)NCCC(C)C)cc1 | 954 |
| Cc1ccc(C)c(N2CCN(c3ccnc(SCC(=O)Nc4cccc(Cl)c4)n3)CC2)c1 | 999 |
| CS(=O)(=O)N1C[C@@H](COc2ccncc2)[C@H](c2ccccn2)C1 | 542 |
| CCCN1C(=O)c2c(C(=O)NCc3ccc(F)cc3)ncn2CC1(C)C(=O)NCCC(C)C (centres undefined) | 824 |
| O=C(c1cccc(Cl)c1)N1CCC2(C1)NC(=O)N(Cc1ccc(F)cc1)C2=O (centres undefined) | 820 |
| CC(NC(=O)C1CCN(c2cncnc2N2CCCC2)CC1)c1ccccc1 (centres undefined) | 660 |
| Cc1cccc(Sc2nccnc2N2CCCC(C(=O)NCc3ccc(C)o3)C2)c1 (centres undefined) | 1060 |
| Cc1ccc2c(c1)c1nc3ccccc3nc1n2CC(=O)O | 721 |
| C(=C\c1ccccc1)/CN1CCN(CCOC(c2ccccc2)c2ccccc2)CC1 | 884 |
| CCNC(=O)C1CCCN(S(=O)(=O)c2cc(OC)ccc2OC)C1 (centres undefined) | 699 |
| CCc1nc2c(NC(=O)COC)cccn2n1 | 646 |
| O=C1CC(c2noc(-c3ccc(-c4ccccc4)cc3)n2)CN1c1ccc(F)cc1 (centres undefined) | 1200 |
| Cc1ccc2nc(-c3cc(Br)ccc3F)c(Nc3ccccc3C)n2c1 | 793 |
